These results are taken from ChEMBL document CHEMBL5678818, “Discovery of potent SOS1 inhibitors that block RAS activation via disruption of the RAS-SOS1 interaction” (Proc Natl Acad Sci U S A, 2019).

Assay [1] concerns the target T1, Aurora kinase C (Homo sapiens) (UniProt Q9UQB9).
T1 sequence (whole entry): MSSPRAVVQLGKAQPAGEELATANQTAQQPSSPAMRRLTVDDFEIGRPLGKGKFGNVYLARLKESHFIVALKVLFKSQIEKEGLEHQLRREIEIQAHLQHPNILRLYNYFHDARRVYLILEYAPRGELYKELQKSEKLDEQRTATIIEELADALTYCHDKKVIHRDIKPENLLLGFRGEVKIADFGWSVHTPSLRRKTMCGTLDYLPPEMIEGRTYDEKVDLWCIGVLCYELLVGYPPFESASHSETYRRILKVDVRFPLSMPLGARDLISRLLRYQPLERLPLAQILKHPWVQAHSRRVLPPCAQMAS
The assay is described as follows: Inhibition of AURKC (unknown origin) assessed as residual activity at 100 nM by KINOMEscan analysis relative to control.

Assay [2] addresses Insulin receptor-related protein (Homo sapiens) (UniProt P14616). The assay can be described thus: Inhibition of INSRR (unknown origin) assessed as residual activity at 100 nM by KINOMEscan analysis relative to control.
Assay [3] addresses Leucine-rich repeat serine/threonine-protein kinase 2 (Homo sapiens) (UniProt Q5S007). The assay can be described thus: Inhibition of LRRK2 (unknown origin) assessed as residual activity at 100 nM by KINOMEscan analysis relative to control.
Assay [4] has as its system Phosphatidylinositol 4,5-bisphosphate 3-kinase catalytic subunit alpha isoform (Homo sapiens), P42336 [E545K]. The assay can be described thus: Inhibition of PIK3CA E545K mutant (unknown origin) assessed as residual activity at 100 nM by KINOMEscan analysis relative to control.
In assay [5] the target is T2, Phosphatidylinositol 4,5-bisphosphate 3-kinase catalytic subunit delta isoform (Homo sapiens) (UniProt O00329).
T2 sequence (whole entry): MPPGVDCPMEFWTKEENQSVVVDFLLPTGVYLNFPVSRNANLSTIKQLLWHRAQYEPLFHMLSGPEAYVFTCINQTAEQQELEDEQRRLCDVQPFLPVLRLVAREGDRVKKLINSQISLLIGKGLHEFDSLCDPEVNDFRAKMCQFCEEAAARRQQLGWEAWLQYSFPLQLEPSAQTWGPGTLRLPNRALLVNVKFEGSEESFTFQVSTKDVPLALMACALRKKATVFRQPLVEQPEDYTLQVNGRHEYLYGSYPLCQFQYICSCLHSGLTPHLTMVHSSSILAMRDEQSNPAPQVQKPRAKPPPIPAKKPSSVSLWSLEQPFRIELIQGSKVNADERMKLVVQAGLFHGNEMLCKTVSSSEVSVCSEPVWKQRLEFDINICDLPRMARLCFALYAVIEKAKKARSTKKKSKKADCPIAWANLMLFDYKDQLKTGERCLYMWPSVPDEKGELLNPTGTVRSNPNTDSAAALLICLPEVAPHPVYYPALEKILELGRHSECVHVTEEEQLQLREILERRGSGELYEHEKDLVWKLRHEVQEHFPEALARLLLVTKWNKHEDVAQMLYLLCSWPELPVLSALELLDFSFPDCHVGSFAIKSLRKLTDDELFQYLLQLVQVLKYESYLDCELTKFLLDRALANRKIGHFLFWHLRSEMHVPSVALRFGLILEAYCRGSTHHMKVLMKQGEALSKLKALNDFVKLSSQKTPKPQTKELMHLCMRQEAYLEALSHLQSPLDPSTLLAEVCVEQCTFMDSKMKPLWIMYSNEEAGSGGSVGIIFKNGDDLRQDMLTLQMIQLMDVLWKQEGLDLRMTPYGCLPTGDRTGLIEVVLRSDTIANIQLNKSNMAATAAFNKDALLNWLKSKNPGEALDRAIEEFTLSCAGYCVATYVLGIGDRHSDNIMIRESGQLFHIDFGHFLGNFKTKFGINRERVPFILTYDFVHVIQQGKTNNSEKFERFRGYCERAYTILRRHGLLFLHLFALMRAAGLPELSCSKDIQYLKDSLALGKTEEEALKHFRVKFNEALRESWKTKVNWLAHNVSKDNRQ
The assay is described as follows: Inhibition of PIK3CD (unknown origin) assessed as residual activity at 100 nM by KINOMEscan analysis relative to control.

The target of assay [6] is Receptor-interacting serine/threonine-protein kinase 2 (Homo sapiens) (UniProt O43353). The assay can be described thus: Inhibition of RIPK2 (unknown origin) assessed as residual activity at 100 nM by KINOMEscan analysis relative to control.
Receptor-interacting serine/threonine-protein kinase 2 (Homo sapiens), sequence (O43353 whole entry): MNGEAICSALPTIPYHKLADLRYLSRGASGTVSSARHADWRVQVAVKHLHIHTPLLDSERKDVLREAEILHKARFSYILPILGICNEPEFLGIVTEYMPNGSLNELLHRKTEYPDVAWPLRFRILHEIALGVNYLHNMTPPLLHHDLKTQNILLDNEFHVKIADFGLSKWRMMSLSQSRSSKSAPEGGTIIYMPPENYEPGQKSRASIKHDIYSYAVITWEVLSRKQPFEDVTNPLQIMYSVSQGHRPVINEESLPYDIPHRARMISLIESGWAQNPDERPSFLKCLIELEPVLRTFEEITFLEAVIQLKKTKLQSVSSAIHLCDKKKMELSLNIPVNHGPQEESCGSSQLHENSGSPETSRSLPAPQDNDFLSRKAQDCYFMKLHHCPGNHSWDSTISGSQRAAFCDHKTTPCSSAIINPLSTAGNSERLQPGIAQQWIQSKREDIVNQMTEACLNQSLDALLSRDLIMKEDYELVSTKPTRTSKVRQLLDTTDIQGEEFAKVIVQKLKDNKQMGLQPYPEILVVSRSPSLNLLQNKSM
The target of assay [7] is Ribosomal protein S6 kinase alpha-4 (Homo sapiens) (UniProt O75676). The assay can be described thus: Inhibition of N-terminal RPS6KA4 […] domain 1 (unknown origin) assessed as residual activity at 100 nM by KINOMEscan analysis relative to control.
Assay [8] deals with Ribosomal protein S6 kinase alpha-1 (Homo sapiens) (UniProt Q15418). The assay is described as follows: Inhibition of N-terminal RSK1 kinetic domain 1 (unknown origin) assessed as residual activity at 100 nM by KINOMEscan analysis relative to control.
Ribosomal protein S6 kinase alpha-1 (Homo sapiens), sequence (Q15418 whole entry, the tested form may be a part): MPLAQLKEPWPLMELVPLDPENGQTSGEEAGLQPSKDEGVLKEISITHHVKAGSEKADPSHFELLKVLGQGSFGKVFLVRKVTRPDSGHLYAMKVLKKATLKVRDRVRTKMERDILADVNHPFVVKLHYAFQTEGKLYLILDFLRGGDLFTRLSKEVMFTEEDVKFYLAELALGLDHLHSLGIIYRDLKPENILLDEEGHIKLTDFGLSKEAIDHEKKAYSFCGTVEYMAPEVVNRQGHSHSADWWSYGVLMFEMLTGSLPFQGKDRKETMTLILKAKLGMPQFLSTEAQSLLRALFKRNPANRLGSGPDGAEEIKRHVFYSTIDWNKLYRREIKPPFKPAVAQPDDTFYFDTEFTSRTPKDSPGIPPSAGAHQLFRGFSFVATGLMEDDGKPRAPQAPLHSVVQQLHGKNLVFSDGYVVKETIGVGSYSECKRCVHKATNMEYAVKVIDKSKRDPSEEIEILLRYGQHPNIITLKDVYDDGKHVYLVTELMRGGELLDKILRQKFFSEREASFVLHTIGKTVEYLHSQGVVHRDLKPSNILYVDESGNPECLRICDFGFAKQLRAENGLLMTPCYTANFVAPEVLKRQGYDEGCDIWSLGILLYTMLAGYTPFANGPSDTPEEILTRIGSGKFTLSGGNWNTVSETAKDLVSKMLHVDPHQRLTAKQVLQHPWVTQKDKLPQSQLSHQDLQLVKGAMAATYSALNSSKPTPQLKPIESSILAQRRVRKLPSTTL
For assay [9], the target named is 1-phosphatidylinositol 3-phosphate 5-kinase (Homo sapiens) (UniProt Q9Y2I7). The assay can be described thus: Inhibition of PIKFYVE (unknown origin) assessed as residual activity at 1000 nM by KINOMEscan analysis relative to control.

SMILES strings stand for the structures.

Leucine-rich repeat serine/threonine-protein kinase 2 (Homo sapiens), sequence (Q5S007 whole entry, canonical isoform): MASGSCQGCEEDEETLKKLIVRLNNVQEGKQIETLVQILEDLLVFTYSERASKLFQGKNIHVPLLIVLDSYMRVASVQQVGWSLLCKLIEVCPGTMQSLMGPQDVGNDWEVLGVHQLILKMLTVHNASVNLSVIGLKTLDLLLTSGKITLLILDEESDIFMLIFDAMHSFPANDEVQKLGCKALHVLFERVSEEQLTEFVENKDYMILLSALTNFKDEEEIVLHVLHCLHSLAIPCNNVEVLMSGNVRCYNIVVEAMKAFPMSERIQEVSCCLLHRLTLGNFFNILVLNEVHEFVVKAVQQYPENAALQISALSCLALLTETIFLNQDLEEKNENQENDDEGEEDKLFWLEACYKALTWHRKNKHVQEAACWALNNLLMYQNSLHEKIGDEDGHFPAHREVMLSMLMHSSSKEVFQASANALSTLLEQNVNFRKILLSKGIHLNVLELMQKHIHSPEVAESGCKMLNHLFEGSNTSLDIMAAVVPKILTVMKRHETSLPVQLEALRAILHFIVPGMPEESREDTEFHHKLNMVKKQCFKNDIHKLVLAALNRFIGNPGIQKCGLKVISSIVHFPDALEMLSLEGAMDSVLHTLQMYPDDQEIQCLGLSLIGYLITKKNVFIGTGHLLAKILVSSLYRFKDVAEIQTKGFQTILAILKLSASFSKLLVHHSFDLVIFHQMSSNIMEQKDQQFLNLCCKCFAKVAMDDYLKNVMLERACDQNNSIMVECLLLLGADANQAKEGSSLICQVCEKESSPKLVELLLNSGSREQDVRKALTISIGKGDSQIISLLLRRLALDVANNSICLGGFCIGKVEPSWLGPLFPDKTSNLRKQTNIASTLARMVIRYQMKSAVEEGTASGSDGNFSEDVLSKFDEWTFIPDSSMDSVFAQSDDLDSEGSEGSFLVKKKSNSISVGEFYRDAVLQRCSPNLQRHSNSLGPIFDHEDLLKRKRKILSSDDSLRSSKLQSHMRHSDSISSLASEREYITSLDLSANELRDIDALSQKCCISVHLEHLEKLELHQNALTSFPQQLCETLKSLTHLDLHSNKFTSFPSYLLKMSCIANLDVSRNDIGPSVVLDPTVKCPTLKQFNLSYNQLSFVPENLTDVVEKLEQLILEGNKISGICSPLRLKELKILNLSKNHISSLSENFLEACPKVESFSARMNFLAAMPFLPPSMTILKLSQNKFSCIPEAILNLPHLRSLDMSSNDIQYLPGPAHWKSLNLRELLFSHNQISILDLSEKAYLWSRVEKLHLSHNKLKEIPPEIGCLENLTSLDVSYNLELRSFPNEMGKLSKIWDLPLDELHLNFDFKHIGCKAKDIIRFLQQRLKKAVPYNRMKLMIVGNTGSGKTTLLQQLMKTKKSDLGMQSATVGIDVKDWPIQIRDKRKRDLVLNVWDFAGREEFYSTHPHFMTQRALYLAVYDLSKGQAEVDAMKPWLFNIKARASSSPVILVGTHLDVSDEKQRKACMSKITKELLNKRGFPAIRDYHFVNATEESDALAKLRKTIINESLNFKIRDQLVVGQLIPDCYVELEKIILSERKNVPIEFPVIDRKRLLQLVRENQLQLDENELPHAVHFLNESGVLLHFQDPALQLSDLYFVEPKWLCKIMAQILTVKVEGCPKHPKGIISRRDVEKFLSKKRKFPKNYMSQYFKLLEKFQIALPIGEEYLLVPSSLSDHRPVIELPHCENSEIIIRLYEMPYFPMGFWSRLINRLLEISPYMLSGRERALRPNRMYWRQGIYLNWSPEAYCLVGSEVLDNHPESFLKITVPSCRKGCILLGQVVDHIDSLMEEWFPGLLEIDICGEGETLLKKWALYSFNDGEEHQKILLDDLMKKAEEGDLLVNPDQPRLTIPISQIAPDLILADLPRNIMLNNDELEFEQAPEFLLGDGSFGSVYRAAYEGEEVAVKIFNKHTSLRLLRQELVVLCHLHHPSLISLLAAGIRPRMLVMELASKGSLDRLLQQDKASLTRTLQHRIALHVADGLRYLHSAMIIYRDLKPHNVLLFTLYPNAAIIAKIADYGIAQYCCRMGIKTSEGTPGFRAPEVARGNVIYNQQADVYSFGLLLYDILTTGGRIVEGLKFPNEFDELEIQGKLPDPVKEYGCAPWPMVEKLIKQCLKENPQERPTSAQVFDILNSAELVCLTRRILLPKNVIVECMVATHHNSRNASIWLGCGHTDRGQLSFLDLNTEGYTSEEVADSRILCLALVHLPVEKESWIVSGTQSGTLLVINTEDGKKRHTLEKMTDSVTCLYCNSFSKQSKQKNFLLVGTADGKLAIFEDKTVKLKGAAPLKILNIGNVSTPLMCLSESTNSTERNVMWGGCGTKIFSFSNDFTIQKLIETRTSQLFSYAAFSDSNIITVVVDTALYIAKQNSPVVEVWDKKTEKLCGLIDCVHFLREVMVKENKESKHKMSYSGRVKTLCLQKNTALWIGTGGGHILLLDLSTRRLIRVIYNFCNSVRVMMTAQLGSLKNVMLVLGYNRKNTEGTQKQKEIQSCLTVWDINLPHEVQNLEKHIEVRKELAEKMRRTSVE
Insulin receptor-related protein (Homo sapiens), sequence (P14616 27-742 limits assumed): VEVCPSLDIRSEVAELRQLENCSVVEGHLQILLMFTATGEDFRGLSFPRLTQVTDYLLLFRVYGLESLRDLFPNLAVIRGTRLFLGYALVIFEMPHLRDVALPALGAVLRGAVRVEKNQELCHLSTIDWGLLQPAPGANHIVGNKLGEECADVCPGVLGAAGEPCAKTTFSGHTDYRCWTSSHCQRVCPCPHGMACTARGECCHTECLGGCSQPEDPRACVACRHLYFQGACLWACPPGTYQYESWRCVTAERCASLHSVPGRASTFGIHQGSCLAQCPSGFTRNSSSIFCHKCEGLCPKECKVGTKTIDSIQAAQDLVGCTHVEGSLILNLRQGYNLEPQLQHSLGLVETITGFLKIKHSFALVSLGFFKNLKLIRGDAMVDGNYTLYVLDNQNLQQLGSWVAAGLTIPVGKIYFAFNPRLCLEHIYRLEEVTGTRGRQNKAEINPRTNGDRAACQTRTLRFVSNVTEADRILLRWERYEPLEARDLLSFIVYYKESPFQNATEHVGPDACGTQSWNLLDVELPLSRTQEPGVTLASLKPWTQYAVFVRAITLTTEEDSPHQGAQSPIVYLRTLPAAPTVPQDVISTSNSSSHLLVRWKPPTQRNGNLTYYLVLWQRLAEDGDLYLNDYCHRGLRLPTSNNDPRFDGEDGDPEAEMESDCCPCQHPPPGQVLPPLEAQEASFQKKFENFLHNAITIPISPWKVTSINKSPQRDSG
Insulin receptor-related protein (Homo sapiens), sequence (P14616 747-1297 limits assumed): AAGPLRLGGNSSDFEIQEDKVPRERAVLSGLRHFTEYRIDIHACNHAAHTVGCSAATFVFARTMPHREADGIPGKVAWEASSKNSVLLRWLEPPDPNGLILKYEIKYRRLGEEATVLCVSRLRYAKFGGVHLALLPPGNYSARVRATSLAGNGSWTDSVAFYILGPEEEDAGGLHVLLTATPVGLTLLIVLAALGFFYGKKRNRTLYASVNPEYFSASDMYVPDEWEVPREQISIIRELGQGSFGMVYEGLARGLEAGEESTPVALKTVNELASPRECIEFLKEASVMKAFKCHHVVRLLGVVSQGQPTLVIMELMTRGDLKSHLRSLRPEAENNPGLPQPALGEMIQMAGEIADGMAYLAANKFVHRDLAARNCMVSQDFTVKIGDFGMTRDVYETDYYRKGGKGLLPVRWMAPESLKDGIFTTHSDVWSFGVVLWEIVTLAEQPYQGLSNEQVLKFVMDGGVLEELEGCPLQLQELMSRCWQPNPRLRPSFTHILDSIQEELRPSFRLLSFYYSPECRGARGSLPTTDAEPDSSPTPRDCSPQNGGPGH

`COc1cc2ncnc(N[C@H](C)c3cccc4ccccc34)c2cc1OC`: the Activity amounted to 78% in assay [1]; 92% in [2]; 82% in assay [3]; 75% in assay [4]; 87% in assay [5]; 84% in [6]. The Activity turned out to be 100% in [7] and 90% in [8].
For `COc1cc2nc(C)nc(N[C@H](C)c3cccc(-c4cn[nH]c4)c3)c2cc1OC`, in assay [9], the Activity was determined as 68%.
